Experimental findings from patent publication US8916702B2 (priority 2012, dated 2014) are described below.

The experiment deals with HCV pseudoparticles (genotype 1a HCV E1 and E2 envelope, H77C isolate). The experiment can be described thus: microbe, parasite or virus in culture. Type of experiment: cell-based. The conditions noted are these: Hepatitis C virus.
Where [1] appears, read: Huh-7, 48 h, read-out: Activity (EC50 class), HCV pseudoparticle infection of Huh7 cells, luciferase 2 days after infection, EC50 expressed as class A/B.
Setting [2] is: Huh-7, read-out: Activity (EC50 class), HCV pseudoparticles (genotype 1a, H77C) in Huh7 cells, EC50 expressed as class A/B.
The mark [3] stands for this setting: Huh-7, 48 h, HCV pseudoparticles (genotype 1a, H77C) in Huh7 cells, average of duplicate, luciferase 2 days after infection.
The mark [4] stands for this setting: Huh-7, 48 h, HCV pseudoparticle infection of Huh7 cells, luciferase 2 days after infection, average of duplicates.
[5] abbreviates: Huh-7, 48 h, read-out: Activity (EC50 class), HCV pseudoparticles, Huh7 cells, luciferase 2 days after infection, average of duplicates.

Like-named read-outs stand apart in the source and are kept apart here.

For `C[C@H]1[C@@H](NC(=O)C(=O)NC[C@H](NC(=O)c2ccc(Nc3nc(NC4(c5ccc(Cl)cc5)CC4)nc(OCC(F)(F)F)n3)cc2)C(=O)O)C[C@H]2C[C@@H]1C2(C)C` [Compound 1094], the EC50 under setting [1] lay in the range of 0.01 to 10 nM.
On to `CC(C)CNC(=O)C(=O)N(CCO)CCCNC(=O)c1ccc(Nc2nc(NC3(c4ccc(Cl)cc4)CC3)nc(OCC(F)(F)F)n2)cc1` [Compound 3505], for which the EC50 under setting [2] was 0.01 to 10 nM.
On the same count and under the same terms, the result for `COC(=O)[C@H](CCNC(=O)C(=O)Nc1ccc(Cn2ccnc2C)cc1)NC(=O)c1ccc(Nc2nc(NC3(c4ccc(Cl)cc4)CC3)nc(OCC(F)(F)F)n2)cc1` [Compound 3321] reads 10 to 1000 nM.
For the molecule `COC(=O)[C@H](CNC(=O)C(=O)Nc1ccc(C2CCCCC2)cc1)NC(=O)c1ccc(Nc2nc(NC3(c4ccc(Cl)cc4)CC3)nc(OCC(F)(F)F)n2)cc1` [Compound 3079], the EC50 reads like this: under setting [3], 1.42 nM; under setting [2], 0.01 to 10 nM.
For `O=C(NCC[C@H](NC(=O)c1ccc(Nc2nc(NC3(c4ccc(Cl)cc4)CC3)nc(OCC(F)(F)F)n2)cc1)C(=O)O)C(=O)NCC1(Cn2ccnc2)CC1` [Compound 1429], the EC50 under setting [1] fell in the range of 0.01 to 10 nM.
`CC(C)(CNC(=O)c1ccc(Nc2nc(NC3(c4ccc(Cl)cc4)CC3)nc(OCC(F)(F)F)n2)cc1)NC(=O)C(=O)Nc1ccc(F)cc1` [Compound 3418]: under setting [2], the EC50 lay within 0.01 to 10 nM.
With `O=C(NC1CCCCC1)C(=O)N(CCO)CCCNC(=O)c1ccc(Nc2nc(NC3(c4ccc(Cl)cc4)CC3)nc(OCC(F)(F)F)n2)cc1` [Compound 3510], the EC50 under setting [2] lay within 0.01 to 10 nM.
`COC(=O)[C@@H](CCNC(=O)C(=O)Nc1ccc(Oc2cccnc2)nc1)NC(=O)c1ccc(Nc2nc(NC3(c4ccc(Cl)cc4)CC3)nc(OCC(F)(F)F)n2)cc1` [Compound 3582]: the EC50 is, setting by setting: under setting [3], 8.95 nM; under setting [2], 0.01 to 10 nM.
As for `COC(=O)[C@H](CNC(=O)C(=O)Nc1ccc(S(N)(=O)=O)cc1)NC(=O)c1ccc(Nc2nc(NC3(c4ccc(Cl)cc4)CC3)nc(OCC(F)(F)F)n2)cc1` [Compound 3087], the EC50 under setting [2] fell in the range of 0.01 to 10 nM.
With `COC(=O)[C@H](CCNC(=O)C(=O)NC1CC(C)CC(C)(C)C1)NC(=O)c1ccc(Nc2nc(NC3(c4ccc(Cl)cc4)CC3)nc(OCC(F)(F)F)n2)cc1` (stereo partly shown) [Compound 1107], the EC50 was 0.46 nM under setting [4] and 0.01 to 10 nM under setting [1].
Take `CC(C)(Cc1ccc(F)cc1)NC(=O)C(=O)NCC(NC(=O)c1ccc(Nc2nc(NC3(c4ccc(Cl)cc4)CC3)nc(OCC(F)(F)F)n2)cc1)C(=O)O` (stereo not shown) [Compound 1408]: under setting [1], the EC50 lay in the range of 0.01 to 10 nM.
`COC(=O)[C@H](CNC(=O)C(=O)Nc1ccc(-c2ccccc2C)cc1)NC(=O)c1ccc(Nc2nc(NC3(c4ccc(Cl)cc4)CC3)nc(OCC(F)(F)F)n2)cc1` [Compound 3187]: the EC50 under setting [2] fell in the range of 0.01 to 10 nM.
Take `COC(=O)[C@H](CNC(=O)C(=O)Nc1ccc(C(N)=O)cc1)NC(=O)c1ccc(Nc2nc(NC3(c4ccc(Cl)cc4)CC3)nc(OCC(F)(F)F)n2)cc1` [Compound 3088]: the EC50 under setting [2] is 0.01 to 10 nM.
With `CC(C)(CNC(=O)C(=O)Nc1ccccc1-n1cnnn1)CNC(=O)c1ccc(Nc2nc(NC3(c4ccc(Cl)cc4)CC3)nc(OCC(F)(F)F)n2)cc1` [Compound 3046], the EC50 under setting [2] lay within 0.01 to 10 nM.
`O=C(Nc1ccc(F)cc1)C(=O)N1CCCC(CNC(=O)c2ccc(Nc3nc(NC4(c5ccc(Cl)cc5)CC4)nc(OCC(F)(F)F)n3)cc2)C1` (stereo not shown) [Compound 3482]: the 50% effective concentration (EC50) under setting [2] lay within 0.01 to 10 nM.
Consider `COC(=O)[C@H](CNC(=O)C(=O)Nc1ccc(C(=O)N2CCOCC2)cc1)NC(=O)c1ccc(Nc2nc(NC3(c4ccc(Cl)cc4)CC3)nc(OCC(F)(F)F)n2)cc1` [Compound 3099], for which the EC50 under setting [2] fell in the range of 0.01 to 10 nM.
Consider `O=C(NCC[C@H](NC(=O)c1ccc(Nc2nc(NC3(c4ccc(Cl)cc4)CC3)nc(OCC(F)(F)F)n2)cc1)C(=O)O)C(=O)Nc1cccc(-c2ccncc2)c1` [Compound 3637], for which, under setting [5], the EC50 was 0.01 to 10 nM.
For the molecule `CN(C(=O)C(=O)NC[C@H](NC(=O)c1ccc(Nc2nc(NC3(c4ccc(Cl)cc4)CC3)nc(OCC(F)(F)F)n2)cc1)C(=O)O)c1ccccc1` [Compound 1365], the EC50 under setting [1] lay in the range of 0.01 to 10 nM.
For the molecule `O=C(Nc1ccccc1)C(=O)N(CCO)CCCNC(=O)c1ccc(Nc2nc(NC3(c4ccc(Cl)cc4)CC3)nc(OCC(F)(F)F)n2)cc1` [Compound 3508], under setting [2], the EC50 lay within 0.01 to 10 nM.
Consider `CCC1CCC(NC(=O)C(=O)NC[C@H](NC(=O)c2ccc(Nc3nc(NC4(c5ccc(Cl)cc5)CC4)nc(OCC(F)(F)F)n3)cc2)C(=O)O)CC1` (stereo partly shown) [Compound 1093], for which the EC50 under setting [1] lay in the range of 0.01 to 10 nM.
For the molecule `Cc1ccc(NC(=O)C(=O)NC/C(=N/C(=O)c2ccc(Nc3nc(NC4(c5ccc(Cl)cc5)CC4)nc(OCC(F)(F)F)n3)cc2)C(=O)O)cc1` [Compound 3153], the EC50 under setting [2] lay within 0.01 to 10 nM.
`COC(=O)[C@H](CNC(=O)C(=O)Nc1ccc(CN2CCCCC2)cc1)NC(=O)c1ccc(Nc2nc(NC3(c4ccc(Cl)cc4)CC3)nc(OCC(F)(F)F)n2)cc1` [Compound 3196]: the EC50 under setting [2] lay within 0.01 to 10 nM.
For the molecule `CC(C)(CNC(=O)C(=O)Nc1cccnc1-c1ccccc1)CNC(=O)c1ccc(Nc2nc(NC3(c4ccc(Cl)cc4)CC3)nc(OCC(F)(F)F)n2)cc1` [Compound 3258], the EC50 under setting [2] lay within 0.01 to 10 nM.
In the case of `COC(=O)[C@H](CCNC(=O)C(=O)NCC1CC1(Cl)Cl)NC(=O)c1ccc(Nc2nc(NC3(c4ccc(Cl)cc4)CC3)nc(OCC(F)(F)F)n2)cc1` (stereo partly shown) [Compound 1372], under setting [1], the EC50 lay in the range of 0.01 to 10 nM.
For `O=C(NCC[C@H](NC(=O)c1ccc(Nc2nc(NC3(c4ccc(Cl)cc4)CC3)nc(OCC(F)(F)F)n2)cc1)C(=O)O)C(=O)Nc1ccc(OCCN2CCCCC2)nc1` [Compound 3661], under setting [5], the 50% effective concentration (EC50) was 0.01 to 10 nM.
In the case of `O=C(Nc1cc(F)cc(F)c1)C(=O)N1CCCC(CNC(=O)c2ccc(Nc3nc(NC4(c5ccc(Cl)cc5)CC4)nc(OCC(F)(F)F)n3)cc2)C1` (stereo not shown) [Compound 3485], the EC50 under setting [2] lay in the range of 0.01 to 10 nM.
Take `COC(=O)[C@H](CNC(=O)C(=O)NC1CCCCC1c1ccccc1)NC(=O)c1ccc(Nc2nc(NC3(c4ccc(Cl)cc4)CC3)nc(OCC(F)(F)F)n2)cc1` (stereo partly shown) [Compound 1305]: under setting [1], the half-maximal effective concentration (EC50) lay in the range of 0.01 to 10 nM.
Take `O=C(Nc1ccc(Oc2nn[nH]n2)cc1)C(=O)NC1CCCC1CNC(=O)c1ccc(Nc2nc(NC3(c4ccc(Cl)cc4)CC3)nc(OCC(F)(F)F)n2)cc1` (stereo not shown) [Compound 1494]: the EC50 under setting [1] was in the range of 0.01 to 10 nM.
In the case of `CC(C)(CNC(=O)C(=O)Nc1ccc(F)cc1F)CNC(=O)c1ccc(Nc2nc(NC3(c4ccc(Cl)cc4)CC3)nc(OCC(F)(F)F)n2)cc1F` [Compound 3555], the 50% effective concentration (EC50) under setting [2] fell in the range of 0.01 to 10 nM.
Take `CC(C)(CNC(=O)C(=O)Nc1ccc(C2CCCCC2)cc1)CNC(=O)c1ccc(Nc2nc(NC3(c4ccc(Cl)cc4)CC3)nc(OCC(F)(F)F)n2)cc1` [Compound 1584]: the EC50 under setting [1] lay within 0.01 to 10 nM.
For `O=C(NCCCNC(=O)c1ccc(Nc2nc(NC3(c4ccc(Cl)cc4)CC3)nc(OCC(F)(F)F)n2)cc1)C(=O)Nc1cccc(F)c1` [Compound 3349], the EC50 was 0.041 nM under setting [3] and 0.01 to 10 nM under setting [2].
Regarding `Cc1ccc(NC(=O)C(=O)NCC(C)(C)CNC(=O)c2ccc(Nc3nc(NC4(c5ccc(Cl)cc5)CC4)nc(OCC(F)(F)F)n3)cc2)c(Cl)c1` [Compound 3378], the EC50 under setting [2] lay in the range of 0.01 to 10 nM.
For `O=C(NCC[C@H](NC(=O)c1ccc(Nc2nc(NC3(c4ccc(Cl)cc4)CC3)nc(OCC(F)(F)F)n2)cc1)C(=O)O)C(=O)NC1CCCCC1O` (stereo partly shown) [Compound 1113], the EC50 under setting [1] is 0.01 to 10 nM.
Still for that read-out and setting: in the case of `O=C(NCCc1cccnc1)C(=O)NC[C@H](NC(=O)c1ccc(Nc2nc(NC3(c4ccc(Cl)cc4)CC3)nc(OCC(F)(F)F)n2)cc1)C(=O)O` [Compound 1405] it was 0.01 to 10 nM.
Regarding `Cc1cc(Cl)ccc1NC(=O)C(=O)NCC(C)(C)CNC(=O)c1ccc(Nc2nc(NC3(c4ccc(Cl)cc4)CC3)nc(OCC(F)(F)F)n2)cc1` [Compound 3057], under setting [2], the EC50 fell in the range of 0.01 to 10 nM.
Turning to `O=C(NCCc1c[nH]cn1)C(=O)NCC[C@H](NC(=O)c1ccc(Nc2nc(NC3(c4ccc(Cl)cc4)CC3)nc(OCC(F)(F)F)n2)cc1)C(=O)O` [Compound 1339], the EC50 under setting [1] lay within 0.01 to 10 nM.
Regarding `COC(=O)[C@H](CNC(=O)C(=O)Nc1ccc(Cn2ccnc2C)cc1)NC(=O)c1ccc(Nc2nc(NC3(c4ccc(Cl)cc4)CC3)nc(OCC(F)(F)F)n2)cc1` [Compound 3204], the EC50 under setting [2] lay within 0.01 to 10 nM.
Take `CC(C)(CNC(=O)c1ccc(Nc2nc(NC3(c4ccc(Cl)cc4)CC3)nc(OCC(F)(F)F)n2)cc1)NC(=O)C(=O)N1CCCCC1` [Compound 3439]: the EC50 under setting [2] was 0.01 to 10 nM.
Consider `COC(=O)[C@H](CCNC(=O)C(=O)NCc1ccccc1)NC(=O)c1ccc(Nc2nc(NC3(c4ccc(Cl)cc4)CC3)nc(OCC(F)(F)F)n2)cc1` [Compound 1142], for which the EC50 under setting [1] is 0.01 to 10 nM.
On to `COC(=O)[C@H](CCNC(=O)C(=O)Nc1ccc(Oc2ccccc2)cc1)NC(=O)c1ccc(Nc2nc(NC3(c4ccc(Cl)cc4)CC3)nc(OCC(F)(F)F)n2)cc1` [Compound 3113], for which the EC50 is, setting by setting: under setting [3], 7.77 nM; under setting [2], 0.01 to 10 nM.
Consider `COC(=O)[C@H](CNC(=O)C(=O)Nc1ccc(-c2nc(OC)cc(OC)n2)cc1)NC(=O)c1ccc(Nc2nc(NC3(c4ccc(Cl)cc4)CC3)nc(OCC(F)(F)F)n2)cc1` [Compound 3185], for which the EC50 under setting [2] was 0.01 to 10 nM.
For `COC(=O)/C(CCNC(=O)C(=O)Nc1cccc(S(C)(=O)=O)c1)=N\C(=O)c1ccc(Nc2nc(NC3(c4ccc(Cl)cc4)CC3)nc(OCC(F)(F)F)n2)cc1` [Compound 3588], the EC50 under setting [2] lay within 0.01 to 10 nM.
`CC(C)(CNC(=O)C(=O)Nc1ccccc1Cl)CNC(=O)c1ccc(Nc2nc(NC3(c4ccc(Cl)cc4)CC3)nc(OCC(F)(F)F)n2)cc1` [Compound 1571]: the EC50 runs as follows: under setting [4], 0.05 nM; under setting [1], 0.01 to 10 nM.
